Values quoted from earlier work in patent US20060106004A1, “Unique methods and formulations of bio-identical sex steroids for the treatment of pathophysiologic aberrations of menopause” (priority 2004, published 2006).

Tests used:
uterus = settings: ovariectomized rats
mammary carcinoma = settings: following radiation or carcinogenesis
metastatic breast cancer = settings: doses from 2.5 to 15 mg/day

## C[C@]12CC[C@@H]3c4ccc(O)cc4CC[C@H]3[C@@H]1C[C@@H](O)[C@@H]2O [Estriol, estriol]
uterus
  stimulation of uterine weights: does not significantly stimulate uterine weights
Mammary carcinoma
  reduction of mammary carcinoma rates: 80%
Metastatic breast cancer
  proportion of women with arrested growth and remission of metastatic lesions: Over ⅓
